Patent publication US20230330058A1, “SENOLYTIC COMPOUNDS AND COMPOSITIONS” (NUCHIDO LIMITED, priority 2020, published 2023)
“Also recorded” adds a separate entry of the source. Structures can show the parent of a compound that is named as a salt.

How the values were obtained:
platelets = details: originally intended as anti-cancer drugs; cited from earlier work
[1] = tested on: senescent Human Dermal Fibroblasts (HDFs) versus non-senescent ('young') HDFs; assay: Senescence-specific assay: co-culture of labelled senescent and non-senescent cells, automated counting before and after 72 h incubation; format: cell-based; details: for selective senolytic activity: single agent, killing senescent cells over non-senescent cells; for increase of the senolytic effect of navitoclax: uncoupler together with navitoclax, efficacy at lower navitoclax concentrations (FIGS. 11, 12; senescent and proliferating cells); for senolytic activity in galactose media: glycolysis suppressed (FIGS. 5, 13); for selective senolytic activity at concentrations reached in humans: concentrations already known to be reached safely in humans, achievable blood plasma concentrations (FIG. 3)
Experimental: We developed a senescence-specific assay, employing automated counting of differentially labelled senescent and non-senescent cells in co-culture, before and after 72h incubation with each molecule or molecule combination.
Human Dermal Fibroblasts (HDFs) expressing pSLIEW (Green), or mCherry (Red) are used in the assay. The cells expressing pSLIEW (Green) are subjected to 20 Gy X-irradiation to induce senescence.
The test molecule is added to the co-culture, and the number of green and red cells are counted before and after 72 h incubation. A selective senolytic would be expected to diminish the proportion of green-expressing senescent cells, while leaving the number of red-expressing young cells unchanged or increased due to replication during the incubation period.
The experiments were carried out in 96-well plates, and the cells were imaged using fluorescent microscopy. The images were analysed with ICY software for automated cell counting, and both numbers of labelled cells and their other visible characteristics such as size were recorded.

aging in animals = details: cited from earlier work
senescent cells = details: cited from earlier work

Structure (SMILES) | selective senolytic activity [1] | further results
Cc1c(-c2ccc(N3CCc4cccc(C(=O)Nc5nc6ccccc6s5)c4C3)nc2C(=O)O)cnn1CC12CC3CC(CC(C3)C1)C2 [A-1331852, 3-(1-(((3r,5r,7r)-adamantan-1-yl)methyl)-5-methyl-1H-pyrazol-4-yl)-6-(8-(benzo[d]thiazol-2-ylcarbamoyl)-3,4-dihydroisoquinolin-2(1H)-yl)picolinic acid] |  | side-effect profile (platelets): thrombocytopaenia
C[C@@H]1CC[C@H]2[C@@H](C)C(=O)O[C@@H]3O[C@@]4(C)CC[C@@H]1[C@]32OO4 [Artemisinin] | showed selective senolytic activity | 
CN1C(=O)C(C(=O)Nc2nncs2)c2cc3occc3cc21 (stereo not drawn) [BML-288] | showed selective senolytic activity | 
CC(C)(C)c1cc(O)c(C(C)(C)C)cc1O [BTBHQ, 2,5-di-tert-butylhydroquinone] | showed selective senolytic activity | 
N#CC(C#N)=NNc1cccc(Cl)c1 [CCCP, Carbonyl cyanide m-chlorophenyl hydrazone] |  | increase of the senolytic effect of navitoclax [1]: increases the senolytic effect of navitoclax
O=[N+]([O-])c1ccc(O)c([N+](=O)[O-])c1 [DNP, 2,4-Dinitrophenol] | selective senolytic activity | 
O=C(O[C@@H]1Cc2c(O)cc(O)cc2O[C@@H]1c1cc(O)c(O)c(O)c1)c1cc(O)c(O)c(O)c1 [EGCG, epigallocatechin gallate] | showed selective senolytic activity | 
N#CC(C#N)=NNc1ccc(OC(F)(F)F)cc1 [FCCP, Carbonyl cyanide-p-trifluoromethoxyphenylhydrazone] | selective senolytic activity | increase of the senolytic effect of navitoclax [1]: increases the senolytic effect of navitoclax
CN1CCc2ccccc2Cc2[nH]c3ccccc3c2CC1 [LE300, 6,7,8,9,14,15-hexahydro-7-methyl-5H-indolo[3,2-f][3]benzazecine] | showed selective senolytic activity | 
O=C(O)CCCCC1CCSS1 (stereo not drawn) [alpha lipoic acid] | showed selective senolytic activity | 
O=c1cc(-c2ccc(O)cc2)oc2cc(O)cc(O)c12 [apigenin] | showed selective senolytic activity | 
OCCN1CCN(CCCN2c3ccccc3Sc3ccc(C(F)(F)F)cc32)CC1 [fluphenazine dihydrochloride] |  | selective senolytic activity ([1]; dihydrochloride): showed selective senolytic activity; selective senolytic activity ([1]; listed as fluphenazine hydrochloride, dihydrochloride): selective senolytic activity
C=CCc1ccc(O)c(-c2ccc(O)c(CC=C)c2)c1 [honokiol] | showed selective senolytic activity | 
C=CCc1ccc(O)c(-c2cc(CC=C)ccc2O)c1 [magnolol] | showed selective senolytic activity | 
CN(C)C(=N)N=C(N)N [metformin] |  | senolytic activity in galactose media [1]: senolytic at physiological doses if glycolysis is suppressed; also recorded: senolytic when glycolysis is suppressed; also recorded: displays senolytic activity; effect on aging in animals (aging in animals): can delay aging in animals
CC1(C)CCC(c2ccc(Cl)cc2)=C(CN2CCN(c3ccc(C(=O)NS(=O)(=O)c4ccc(N[C@H](CCN5CCOCC5)CSc5ccccc5)c(S(=O)(=O)C(F)(F)F)c4)cc3)CC2)C1 [navitoclax] |  | side-effect profile (platelets): thrombocytopaenia; senolytic agent in animal studies (senescent cells): inducing apoptosis in senescent cells, but less in non-senescent cells
O=C(Nc1ccc([N+](=O)[O-])cc1Cl)c1cc(Cl)ccc1O [niclosamide] | showed selective senolytic activity | selective senolytic activity at concentrations reached in humans [1]: selective senolytic activity; selective senolytic activity at concentrations reached in humans ([1]; listed as Niclosamide): selectively senolytic at concentrations that are already known to be reached safely in humans
NC(=O)c1cccnc1 [nicotinamide] | showed selective senolytic activity | 
CC(=O)Oc1ccccc1C(=O)Nc1ncc([N+](=O)[O-])s1 [nitazoxanide] |  | senolytic activity in galactose media [1]: selective senolytic activity
O=c1c(O)c(-c2ccc(O)c(O)c2)oc2cc(O)cc(O)c12 [quercetin] | showed selective senolytic activity | 
Oc1ccc(C=Cc2cc(O)cc(O)c2)cc1 [resveratrol] | showed selective senolytic activity | 
